From US7615377B2, “Fluorescein-based metal sensors” (Massachusetts Institute of Technology, priority 2003, dated 2009)
Read-outs that look alike come from different tables or passages of the source. Blank lines part the entries; values can stand above or below the compound they belong to.

Key:
[1] = Selectivity of mercury-induced fluorescence in the presence of other metal ions; assay type: binding; conditions: for fluorescence increase upon addition of Hg^2+: 1 μM probe, excitation 500 nm
Procedure: Selectivity of Mercury-Induced Fluorescence in the Presence of Other Metal Ions. The selectivity of MS1 for Hg^2+ against a background of various alkali, alkaline earth, transition metal ions, and Zn(II), Cd(II) or Pb(II) was investigated by using fluorescence spectroscopy. Aqueous metal ion solutions of Li(I), Na(I), Rb(I), Mg(II), Ca(II), Sr(II), Ba(II), Mn(II), Co(II), Ni(II), Cd(II), and Hg^2+ were prepared from the chloride salts. The Cu(II) solution was prepared from copper sulfate and the Pb(II) was prepared from lead nitrate. A solution of Cr(III) was prepared from chromium acetate and stored at pH 1. Solutions of Fe(II) were prepared immediately before use with ferrous ammonium sulfate and water that was thoroughly purged with Ar. All stock solutions were ˜10 mM, with the exception of 100 mM NaCl. In a typical experiment, the emission spectrum of the free dye was recorded. A 20 μL aliquot of a ˜10 mM metal solution was then added to a 1 μM solution of MS1 (3 mL, for a concentration of metal ion at about 1 to about 50 ppm, depending on the molecular weight of the metal ion tested) and the emission spectrum was recorded with excitation at 500 nm. Subsequently, a 20 μL portion of 10 mM HgCl2 was added and the emission spectrum was obtained. The spectra were integrated from 510-650 nm and normalized with respect to the free dye.

[2] = Fluorescence response of sensor to Hg^2+ (fluorescence spectroscopy, integrated emission); assay type: binding
Procedure: General Spectroscopic Procedures. Ultrol grade PIPES (piperazine-N,N′-bis(2-ethanesulfonic acid) from Calbiochem, KCl (99.997%) and anhydrous HgCl2 (99.998%) were purchased and used as received. Millipore filtered water was used to prepare all aqueous solutions. With the exception of the pKa determination, all spectroscopic measurements were conducted at neutral pH with 50 mM PIPES, 100 mM KCl buffer adjusted to pH 7. An Orion glass electrode, calibrated prior to use, was employed to record solution pH. Mercury solutions were prepared from 10 mM stock solutions of HgCl2. Stock solutions of MS1 (1 mM in DMSO) was prepared, stored at −4° C., and thawed in the dark immediately prior to use. After addition of this stock solution to aqueous buffers, the resulting solution contained 0.1% DMSO for fluorescence and 1% DMSO for absorption measurements. The KaleidaGraph software package was used to manipulate all spectral data.
Fluorescence Spectroscopy. Emission spectra were obtained with a Hitachi F-3010 spectrofluorimeter linked to a Pentium PC running the SpectraCalc software package. A rhodamine quantum counter was used to normalize the spectra for excitation intensity, and manufacturer-supplied correction curves were used to normalize the emission spectra. Manufacturer supplied photomultiplier curves were used to correct for emission intensity. A circulating water bath was used during all experiments to regulate the temperature at 25.0° C.±0.1° C. Spectra were obtained with 3 nm slit widths and either a 240 nm/min or 600 nm/min scan speed. All measurements were conducted at least in triplicate.

[3] = Determination of protonation constants (fluorescence dependence on pH); assay type: physicochemical; conditions: 10 mM KOH, 1 μM probe; for pKa, formation of a non-fluorescent isomer / pKa, protonation of the tertiary amine: 100 mM KCl, pH ~12 to ~3; for pKa: aqueous solution of 100 mM KCl
Procedure: Determination of Protonation Constants. The pKa values for MS1 affect fluorescence were determined by plotting the integrated emission intensity versus pH from ˜12 to ˜4. In a typical experiment, a 30 mL solution of 1 μM MS1 in 100 mM KCl, 10 mM KOH was prepared (pH ˜12). Aliquots of 6 N, 2 N, 1 N, 0.5 N, and 0.5 N HCl were added to achieve pH changes of approximately […], and the emission spectrum was recorded after each addition. […] Upon excitation at 500 nm, the emission spectra were integrated over the range 510 nm to 650 nm, normalized and plotted against pH. The data were fit to the non-linear expression previously described.

[4] = Quantum yield and extinction coefficient measurements (reference fluorescein in 0.1 N NaOH); assay type: physicochemical
Source text: Quantum yield, Φ, may be obtained by comparison of the integrated area of the corrected emission spectrum of the sample with that of a reference solution. A preferred reference solution is a solution of fluorescein in 0.1 N NaOH, quantum efficiency 0.95. The concentration of the reference is adjusted to match the absorbance, Abs, of the test sample. The quantum yields may be calculated using the following equation: […]
Optical Absorption Spectroscopy. UV-visible spectra were obtained by using either a Cary IE scanning spectrophotometer or a Hewlet Packard diode array spectrophotometer. Both instruments were controlled by Pentium PCs and were run using the manufacturer supplied software packages. A circulating water bath was used during acquisition to maintain the temperature at 25.0° C.±1.0° C. Samples were contained in 1-cm path length quartz cuvettes (3.5 mL volume). All manipulations were performed at least three times.
Quantum Yield Measurements. The quantum yield of MS1 was determined by comparison to fluorescein in 0.1 N NaOH (φ=0.95) as a reference. In a typical experiment, a 6 mL solution of ˜1 μM MS1 was prepared. For metal-free studies, 10 μL of 100 mM K4EDTA was added to chelate any adventitious metal ions. To determine the quantum efficiencies of the metal-bound dye, 10 μL of a 10 mM HgCl2 solution was added to a 1 μM MS1 solution. The concentration of the reference solution was adjusted such that Amax (490 nm) equaled Amax of MS1 (505 nm) or Amax of the Hg^2+ complex (501 nm), and the excitation wavelength was chosen as the wavelength determined from where the reference and probe excitation spectra intersect. Excitation was at 497 nm for MS1 and at 496 nm for the Hg^2+ complex. Emission spectra were integrated from 510-650 nm and the quantum yields were calculated standard methods.

[5] = Reversibility of Hg^2+ binding upon addition of TPEN
[6] = Water solubility of the probe; assay type: physicochemical
[7] = pH 7, metal-free, at absorption maximum (497 nm sensor 1; 505 nm MS1)
[8] = pH 7, with Hg^2+, at absorption maximum (500 nm sensor 1; 501 nm MS1)

Structure (SMILES): O=C(O)c1ccccc1-c1c2cc(Cl)c(=O)cc-2oc2c(CN(CCS)Cc3ccccn3)c(O)ccc12 [sensor 1]
selectivity of fluorescence increase for Hg^2+ over other cations ([1]; pH 7): selective for Hg^2+
fluorescence increase upon addition of Hg^2+ ([1]; pH 7 (50 mM PIPES, 100 mM KCl)): 1.5 fold
fluorescence increase upon addition of Hg^2+ ([1]; pH 7 (50 mM PIPES, 100 mM KCl), listed as Sensor 1): ~2.5 fold
selectivity of fluorescence increase for Hg^2+ over other cations ([1]; pH 11): selective for Hg^2+
fluorescence increase upon addition of Hg^2+ ([1]; pH 11 (50 mM CABS, 100 mM KCl)): 5 fold
increase in integrated emission upon addition of Hg^2+ ([2]; pH 11 (50 mM CABS, 100 mM KCl), 0-3 equivalents Hg^2+, excitation 504 nm): ~6 fold
pKa, formation of a non-fluorescent isomer [3]: 4.6
pKa, protonation of the tertiary amine [3]: 8.2
quantum yield, free sensor ([4]; pH 7, metal-free): 0.27
extinction coefficient (epsilon), free sensor [4, 7]: 61,600 M^−1 cm^−1
quantum yield, Hg^2+-bound ([4]; pH 7, with Hg^2+): 0.27
extinction coefficient (epsilon), Hg^2+-bound [4, 8]: 69,000 M^−1 cm^−1
quantum yield, free sensor ([4]; pH 11, metal-free): 0.07
extinction coefficient (epsilon), free sensor ([4]; pH 11, metal-free, 504 nm): 60,800 M^−1 cm^−1
quantum yield, Hg^2+-bound ([4]; pH 11, with Hg^2+): 0.24
extinction coefficient (epsilon), Hg^2+-bound ([4]; pH 11, with Hg^2+, 507 nm): 78,300 M^−1 cm^−1

Structure (SMILES): CC(C)(S)CN(Cc1ccccn1)Cc1c(O)ccc2c(-c3ccccc3C(=O)O)c3cc(Cl)c(=O)cc-3oc12 [sensor 2]
selectivity of fluorescence increase for Hg^2+ over other cations ([1]; pH 7): selective for Hg^2+
fluorescence increase upon addition of Hg^2+ ([1]; pH 7 (50 mM PIPES, 100 mM KCl)): 1.5 fold
selectivity of fluorescence increase for Hg^2+ over other cations ([1]; pH 11): selective for Hg^2+
fluorescence increase upon addition of Hg^2+ ([1]; pH 11 (50 mM CABS, 100 mM KCl)): 6 fold
pKa, formation of a non-fluorescent isomer [3]: 4.7
pKa, protonation of the tertiary amine [3]: 8.0

reversibility of Hg^2+ binding [5]: reversibly
fluorescence after TPEN addition, distance from the background value ([5]; 1 equivalent TPEN added to stoichiometric mixture of sensor and Hg^2+): ≤ 20%
EC50 ([2]; 500 nM probe, pH 7, read-out: EC50 (concentration of Hg^2+ required to achieve 50% of maximum fluorescence)): 410 nM
pKa ([3]; pH ~12 to ~3, read-out: pKa, formation of a non-fluorescent isomer): 4.8
pKa ([3]; pH ~12 to ~3, read-out: pKa, protonation of the aniline nitrogen atom): 7.1
water solubility [6]: water-soluble
absorption maximum, free sensor ([4]; pH 7): 505 nm
increase in brightness upon Hg^2+ binding ([4]; pH 7): ~3.3 fold
emission maximum, free sensor ([4]; pH 7, 50 mM PIPES, 100 mM KCl, EDTA present): 524 nm
quantum yield, free sensor ([4]; pH 7, metal-free): 0.04
extinction coefficient (epsilon), free sensor [4, 7]: 61,400 M^−1 cm^−1
extinction coefficient (epsilon), free sensor ([4]; pH 7, metal-free, at absorption maximum (497 nm sensor 1; 505 nm MS1), listed as MS1): 61,300 M^−1 cm^−1
absorption maximum, Hg^2+-bound ([4]; pH 7, with Hg^2+): 501 nm
emission maximum, Hg^2+-bound ([4]; pH 7, with Hg^2+): 528 nm
quantum yield, Hg^2+-bound ([4]; pH 7, with Hg^2+): 0.11
extinction coefficient (epsilon), Hg^2+-bound [4, 8]: 73,200 M^−1 cm^−1
Structure (SMILES): CCSCCN(CCSCC)Cc1ccccc1NCc1c(O)ccc2c(-c3ccccc3C(=O)O)c3cc(Cl)c(=O)cc-3oc12 [sensor 3, 2-{5-[(2-{[Bis-(2-ethylsulfanyl-ethyl)-amino]-methyl}-phenylamino)-methyl]-2-chloro-6-hydroxy-3-oxo-3H-xanthen-9-yl}-benzoic acid]
normalized integrated emission versus cycle number, Hg^2+/TPEN cycles ([5]; 1 μM sensor, 1 equiv Hg^2+ and 1 equiv TPEN alternately, excitation 500 nm): restoration and decrease of fluorescence upon addition of 1 equiv Hg^2+ and 1 equiv TPEN, respectively, over the course of five cycles
Hg response in a background of alkali and alkaline earth metals ([1]; Li(I), Na(I), Rb(I), Mg(II), Ca(II), Sr(II), Ba(II)): unaffected
effect of Zn(II), Cd(II), Cr(III), Pb(II) on fluorescence response to Hg^2+ ([1]; Zn(II), Cd(II), Cr(III), Pb(II) background): do not inhibit
interference of first-row transition metal ions with Hg^2+-induced fluorescence increase ([1]; first-row transition metal ions): only Cu(II) interferes
selectivity of fluorescence increase for Hg^2+ over other cations ([1]; pH 7): selective for Hg^2+
increase in integrated emission upon addition of Hg^2+ ([2]; pH 7 (50 mM PIPES, 100 mM KCl)): ~7 fold
increase in integrated emission upon addition of Hg^2+ ([2]; pH 7 (50 mM PIPES, 100 mM KCl), listed as MS1): ~5 fold
increase in quantum yield upon Hg^2+ coordination ([4]; pH 7): ~2.75 fold

Structure (SMILES): O=C(O)c1ccccc1-c1c2cc(Cl)c(=O)cc-2oc2c(CNc3ccccc3CN(CCS)Cc3ccccn3)c(O)ccc12 [sensor 4]
fluorescence response upon addition of Hg^2+ ([2]; crude reaction mixture from the synthesis, in the presence of chloride ion): positive fluorescence response

Structure (SMILES): CCSCCSCCN(CCSCCSCC)Cc1ccccc1NCc1c(O)ccc2c(-c3ccccc3C(=O)O)c3cc(Cl)c(=O)cc-3oc12 [sensor 6]
fluorescence change upon Hg^2+ coordination [2]: fluorescence decrease

Structure (SMILES): CCSCCN(CCSCC)Cc1c2oc3c(CN(CCSCC)CCSCC)c(O)c(Cl)cc3c(-c3ccccc3C(=O)O)c-2cc(Cl)c1=O [sensor 7]
fluorescence change upon Hg^2+ coordination [2]: fluorescence decrease
